The text below walks through data of patent US7108996B2, “Method for increasing luminescence assay sensitivity” (Promega Corporation, priority 2000, dated 2006).

Molecules are shown by their SMILES. Read-outs that look alike come from different tables or passages of the source.

Experiment [1] addresses T1, Renilla luciferase (Renilla reniformis, UniProt P27652). The following applies: 100 mM compound, Format A. How it is done: (§1) The enzymatic luminescence measurement may have an autoluminescence component.
(§2) Format A Assays were performed in the presence of Steady Glo® reagent (SG) and Stop & Glo® reagent (S+G), (Promega Corporation, Madison Wis.). A total reaction volume of 150 μl consisted of:
(§3) 50 μl F-12 (Ham) media+1 mg/ml gelatin (with or without enzyme^1)
(§4) 50 μl S+G (containing substrate^2)
(§5) 50 μl SG ^1 Renilla luciferase enzyme was added to F-12 cell culture media containing 1% gelatin, to a concentration of approximately 2.5 ng/50 μl media. Reactions in the absence of Renilla luciferase reveal the effect of the compound on autoluminescence while reactions in the presence of enzyme reveal the effect of the compound on Renilla luciferase-catalyzed luminescence.^2 The S+G reagent was prepared as per manufacturer's instructions, with the exception that for these experiments a S+G solvent three times more concentrated than normal was used to resuspend the S+G substrate.
(§6) The compound to be tested was re-suspended in either SG or S+G reagent to a final concentration of SG or S+G of (1×). The compound was added so the final concentration in the 150 μl total volume would be that listed in Table 1 and the reagent was diluted to the a final of 50 μl with water. For controls, the SG or S+G reagent was brought up to 50 μl with water or with the solvent used to dissolve the compound of interest. For example, if a compound needed to be dissolved in DMSO (dimethyl sulphoxide), an equal volume of DMSO was added to the control reaction. Unless otherwise indicated, the compounds were first dissolved in water.
(§7) For each concentration of a particular compound, a mixture containing all of the components in sufficient amounts for four reactions (i.e. 200 μl media, 200 μl SG, 200 μl S+G) was assembled. From this mixture, 150 μl was dispensed into triplicate wells on a 96-well plate. Alternatively, reactions were sometimes assembled in each well of the plate by adding each of the 50 μl portions and mixing. The plate was incubated at 22° C. and after 5 minutes the luminescence was measured using a Dynex plate luminometer (1 second measurement per well).
(§8) b) effect of the compound on enzymatic luminescence measurement in the presence of the compound when compared to control samples lacking only the compound.

The conditions of experiment [2]: 100 mM compound, Format A. How it is done:
as §1, §2, §3, §4, §5, §6, §7
(§9) a) fold-decrease in non-enzymatic autoluminescence measurement in the presence of the compound when compared to the absence of the compound and, […]

The conditions of experiment [3]: 30 mM compound. How it is done:
as §1
(§10) Format B Experiments were performed in a reaction volume of 150 μl Matthew's Buffer (referred to herein as MB) as either a standard MB composition or a modified MB composition as described below. As with Format A, reactions with and without Renilla luciferase were carried out to observe the effect of the organic compounds on assay sensitivity.
(§11) 1× Matthew's buffer standard composition consists of:
(§12) In order to observe the autoluminescence enhanced only by the detergent, for the majority of the experiments, BSA was replaced with porcine gelatin as the enzyme stabilizer at a final concentration of 0.15 mg/ml or 0.45 mg/ml. Taking all the variants into account the format can be sub-divided in 4 different versions:
(§13) Reactions were carried out in triplicate by adding each of the 50 μl portions to microtiter plate wells and mixing. The resulting relative light units generated per well was measured immediately using a Dynex MLX Microtiter plate luminometer or a Wallac 1450 MicroBeta Trilux plate luminometer (1 second/well) or alternatively, the plate was incubated at 22° C. and read after 5 minutes in the same fashion.
as §9

In experiment [4] the target is T1, Renilla luciferase. The following applies: 30 mM compound, Format B3 (gelatin, detergent). As to the method:
as §1, §10, §11, §12, §13, §8

T1 sequence (P27652 whole entry): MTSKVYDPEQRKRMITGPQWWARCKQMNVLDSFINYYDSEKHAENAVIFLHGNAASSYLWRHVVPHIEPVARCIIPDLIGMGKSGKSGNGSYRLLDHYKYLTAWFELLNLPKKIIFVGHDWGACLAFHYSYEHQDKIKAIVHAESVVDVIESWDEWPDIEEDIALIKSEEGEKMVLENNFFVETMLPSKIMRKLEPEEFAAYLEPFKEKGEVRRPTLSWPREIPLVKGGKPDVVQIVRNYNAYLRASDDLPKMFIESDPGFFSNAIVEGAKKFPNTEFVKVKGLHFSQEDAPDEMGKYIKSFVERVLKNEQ

In the case of `NCCS` [Compound 8], the Effect on luminescence entry on Renilla luciferase [1] and on Renilla luciferase [4] was “No effect” each time. In addition, the Fold decrease autoluminescence in experiment [2] was determined as 6 fold; in experiment [3] (Format B3 (gelatin, detergent)), 20 fold; in experiment [3] (Format B4 (gelatin, no detergent)), 3.5 fold.
